According to US20230210853A1 (Halia Therapeutics, Inc., priority 2020, published 2023):

Biological target: T1, full-length recombinant human NEK7 (Homo sapiens, UniProt Q8TDX7)
T1 construct: full-length recombinant human NEK7; GST (N); purchased SignalChem N09-10G; host or cells: Sf9 insect cells (baculovirus)
Assay: NEK7 enzymatic assay ([33P]-ATP, casein substrate)
Type: biochemical
In short: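 GST-tagged enzyme, baculovirus-expressed in Sf9 cells, was mixed with casein in 20 mM Hepes pH 7.5, 10 mM MgCl2, 1 mM EGTA, 0.02% Brij35, 2 mM DTT, 1% DMSO. Compounds (3-fold series, 10 μM–0.5 nM) were preincubated 20 min at RT, then [33P]-ATP was added for 2 h at RT. P81 filter-bound radioactivity was expressed as % of vehicle activity and fitted to IC50.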

[1] = Table 2d, recombinant human NEK7, casein substrate
[2] = Table 2a, recombinant human NEK7, casein substrate
[3] = Table 2b, recombinant human NEK7, casein substrate
[4] = Table 2e, recombinant human NEK7, casein substrate
[5] = comparative compounds of Structure (II)

T1 sequence (Q8TDX7 whole entry): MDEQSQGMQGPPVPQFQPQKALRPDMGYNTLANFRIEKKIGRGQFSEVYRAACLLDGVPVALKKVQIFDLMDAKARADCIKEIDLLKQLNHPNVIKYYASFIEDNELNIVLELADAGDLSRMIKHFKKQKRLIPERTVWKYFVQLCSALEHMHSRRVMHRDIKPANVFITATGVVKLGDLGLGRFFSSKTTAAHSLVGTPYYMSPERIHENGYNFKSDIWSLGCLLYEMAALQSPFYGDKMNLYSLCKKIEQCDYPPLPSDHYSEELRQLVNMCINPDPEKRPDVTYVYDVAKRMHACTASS

CC1CN(C)CCN1Cc1ccc(NC(=O)Nc2ccc(-c3cn(C4CC4)c4ncnc(N)c34)cc2F)cc1C(F)(F)F (stereo not shown) [Id-69]
IC50 [1]: 151 to 300 nM

CC(C)(C)c1nnc(NC(=O)Nc2ccc(-c3nn(C4CC4)c4ncnc(N)c34)cc2F)o1 [Ia-36, 1-(4-(4-amino-1-cyclopropyl-1H-pyrazolo[3,4-d]pyrimidin-3-yl)-2-fluorophenyl)-3-(5-(tert-butyl)-1,3,4-oxadiazol-2-yl)urea]
IC50 [2]: 501 to 1500 nM

Nc1ncnc2c1c(-c1ccc(NC(=O)Nc3cc(C(F)(F)F)no3)c(F)c1)nn2C1CC1 [Ia-39, 1-(4-(4-amino-1-cyclopropyl-1H-pyrazolo[3,4-d]pyrimidin-3-yl)-2-fluorophenyl)-3-(3-(trifluoromethyl)isoxazol-5-yl)urea]
IC50 [2]: 151 to 300 nM

CN1CCC(Oc2ncc(NC(=O)Nc3ccc(-c4cn(C5CC5)c5ncnc(N)c45)cc3F)cc2C(F)(F)F)CC1 [Id-60]
IC50 [1]: > 1500 nM

Nc1ncnc2c1c(-c1ccc(NC(=O)Nc3ccc(CN4CCN(CCO)CC4)c(C(F)(F)F)c3)c(F)c1)cn2C1CC1 [Id-41, 1-(4-(4-amino-7-cyclopropyl-7H-pyrrolo[2,3-d]pyrimidin-5-yl)-2-fluorophenyl)-3-(4-((4-(2-hydroxyethyl)piperazin-1-yl)methyl)-3-(trifluoromethyl)phenyl)urea]
IC50 [1]: < 150 nM

Cn1nc(C(C)(C)C)cc1NC(=O)Nc1ccc(Oc2ccnc3[nH]cc(Cl)c23)cc1F [Ib-7, 1-(3-(tert-butyl)-1-methyl-1H-pyrazol-5-yl)-3-(4-((3-chloro-1H-pyrrolo[2,3-b]pyridin-4-yl)oxy)-2-fluorophenyl)urea]
IC50 [3]: 501 to 1500 nM

CC(C)(C)c1cc(NC(=O)Nc2ccc(-c3nn(C4CC(F)(F)C4)c4ncnc(N)c34)cc2F)on1 [Ia-16, 1-(4-(4-amino-1-(3,3-difluorocyclobutyl)-1H-pyrazolo[3,4-d]pyrimidin-3-yl)-2-fluorophenyl)-3-(3-(tert-butyl)isoxazol-5-yl)urea]
IC50 [2]: 501 to 1500 nM

O=C(Nc1ccc(CN2CCC2)c(C(F)(F)F)c1)Nc1ccc(Oc2ccnc3[nH]cc(Cl)c23)cc1F [Ie-31, 1-(4-(azetidin-1-ylmethyl)-3-(trifluoromethyl)phenyl)-3-(4-((3-chloro-1H-pyrrolo[2,3-b]pyridin-4-yl)oxy)-2-fluorophenyl)urea]
IC50 [4]: > 1500 nM

O=C(Nc1ccc(Oc2ccnc3[nH]cc(Cl)c23)cc1F)Nc1cc(C2CC2)nn1-c1ccccc1 [Ib-11, 1-(4-((3-chloro-1H-pyrrolo[2,3-b]pyridin-4-yl)oxy)-2-fluorophenyl)-3-(3-cyclopropyl-1-phenyl-1H-pyrazol-5-yl)urea]
IC50 [3]: 501 to 1500 nM

Cc1cn(-c2ccc(NC(=O)Nc3ccc(Oc4ccnc5[nH]cc(Cl)c45)cc3F)cc2C(F)(F)F)cn1 [Ie-24, 1-(4-((3-chloro-1H-pyrrolo[2,3-b]pyridin-4-yl)oxy)-2-fluorophenyl)-3-(4-(4-methyl-1H-imidazol-1-yl)-3-(trifluoromethyl)phenyl)urea]
IC50 [4]: 301 to 500 nM

Cc1ccc(CC(=O)N2CCc3c2ccc(-c2nn(C(C)C)c4ncnc(N)c24)c3F)cc1C(F)(F)F [II-5, 1-(5-(4-amino01-isopropyl-1H-pyrazolo[3,4-d]pyrimidin-3-yl)-4-fluoroindolin-1-yl)-2-(4-methyl-3-(trifluoromethyl)phenyl)ethan-1-one]
IC50 [5]: 301 to 500 nM

CCN1CCN(Cc2ccc(NC(=O)Nc3ccc(-c4nn(C5CC5)c5ncnc(N)c45)cc3F)cc2C(F)(F)F)CC1 [Id-7, 1-(4-(4-amino-t-cyclopropyl-1H-pyrazolo[3,4-d]pyrimidin-3-yl)-2-fluorophenyl)-3-(4-((4-ethylpiperazin-1-yl)methyl)-3-(trifluoromethyl)phenyl)urea]
IC50 [1]: > 1500 nM

Cc1cc(NC(=O)Nc2ccc(Oc3ccnc4[nH]cc(Cl)c34)cc2F)n(-c2ccccc2)n1 [Ib-10, 1-(4-((3-chloro-1-pyrrolo[2,3-b]pyridin-4-yl)oxy)-2-fluorophenyl)-3-(3-methyl-1-phenyl-1H-pyrazol-5-yl)urea]
IC50 [3]: > 1500 nM

CN1CCC(=Cc2ccc(NC(=O)Nc3ccc(-c4cn(C5CC5)c5ncnc(N)c45)cc3F)cc2C(F)(F)F)CC1 [Id-51, 1-(4-(4-amino-7-cyclopropyl-7H-pyrrolo[2,3-d]pyrimidin-5-yl)-2-fluorophenyl)-3-(4-((1-methylpiperidin-4-ylidene)methyl)-3-(trifluoromethyl)phenyl)urea]
IC50 [1]: 501 to 1500 nM

COc1cc(NC(=O)Nc2ccc(Oc3ccnc4[nH]cc(Cl)c34)cc2F)ccc1CN1CCN(C)CC1 [Ie-43, 1-(4-((3-chloro-1H-pyrrolo[2,3-b]pyridin-4-yl)oxy)-2-fluorophenyl)-3-(3-methoxy-4-((4-methylpiperazin-1-yl)methyl)phenyl)urea]
IC50 [4]: > 1500 nM

CN1CCN(Cc2ccc(NC(=O)Nc3ccc(-c4cn(C5CC5)c5ncnc(N)c45)cc3F)cc2C(F)F)CC1 [Id-58]
IC50 [1]: > 1500 nM

CN1CCCN(Cc2ccc(NC(=O)Nc3ccc(-c4cn(C5CC5)c5ncnc(N)c45)cc3F)cc2C(F)(F)F)CC1 [Id-43, 1-(4-(4-amino-7-cyclopropyl-7H-pyrrolo[2,3-d]pyrimidin-5-yl)-2-fluorophenyl)-3-(4-((4-methyl-1,4-diazepan-1-yl)methyl)-3-(trifluoromethyl)phenyl)urea]
IC50 [1]: < 150 nM

CC(C)n1nc(-c2ccc3c(c2F)CCN3C(=O)Cc2ccc(F)c(C(F)(F)F)c2)c2c(N)ncnc21 [II-2, 1-(5-(4-amino-1-isopropyl-1H-pyrazol[3,4-d]pyrimidin-3-yl)-4-fluoroindolin-1-yl)-2-(4-fluoro-3-(trifluoromethyl)phenyl)ethan-1-one]
IC50 [5]: 151 to 300 nM

CN1CCN(Cc2ccc(NC(=O)Nc3ccc(Oc4ccnc5[nH]cc(Cl)c45)cc3F)cc2Cl)CC1 [Ie-12, 1-(4-((3-chloro-1H-pyrrolo[2,3-b]pyridin-4-yl)oxy)-2-fluorophenyl)-3-(3-chloro-4-((4-methylpiperazin-1-yl)methyl)phenyl)urea]
IC50 [4]: > 1500 nM

Cc1cc(Oc2ccnc3[nH]cc(Cl)c23)ccc1NC(=O)Nc1ccc(CN2CCN(C)CC2)c(C(F)(F)F)c1 [Ie-29]
IC50 [4]: > 1500 nM

CC(C)(C)c1cc(NC(=O)Nc2ccc(-c3nn(C4CCS(=O)(=O)C4)c4ncnc(N)c34)cc2F)on1 (stereo not shown) [Ia-18, 1-(4-(4-amino-1-(1,1-dioxdotetrahydrothiophen-3-yl)-1H-pyrazolo[3,4-d]pyrimidin-3-yl)-2-fluorophenyl)-3-(3-(tert-butyl)isoxazol-5-yl)urea]
IC50 [2]: 151 to 300 nM

CC(C)(C)c1cc(NC(=O)Nc2ccc(-c3nn(-c4ccncc4)c4ncnc(N)c34)cc2F)on1 [Ia-17, 1-(4-(4-amino-1-(pyridin-4-yl)-1H-pyrazolo[3,4-d]pyrimidin-3-yl)-2-fluorophenyl)-3-(3-(tert-butyl)isoxazol-5-yl)urea]
IC50 [2]: 301 to 500 nM

CCN1CCN(Cc2ccc(NC(=O)Nc3ccc(Oc4ccnc5[nH]cc(Cl)c45)cc3F)cc2C(F)F)CC1 [Ie-23, 1-(4-((3-chloro-1-pyrrolo[2,3-b]pyridin-4-yl)oxy)-2-fluorophenyl)-3-(3-(difluoromethyl)-4-((4-ethylpiperazin-1-yl)methyl)phenyl)urea]
IC50 [4]: 501 to 1500 nM

O=C(Nc1ccc(CN2CCOCC2)c(C(F)(F)F)c1)Nc1ccc(Oc2ccnc3[nH]cc(Cl)c23)cc1F [Ie-4, 1-(4-((3-Chloro-1H-pyrrolo[2,3-b]pyridin-4-yl)oxy)-2-fluorophenyl)-3-(4-(morpholinomethyl)-3-(trifluoromethyl)phenyl)UR EA]
IC50 [4]: > 1500 nM

CC(C)n1nc(-c2ccc3c(c2F)CCN3C(=O)Cc2cccc(OC(F)(F)F)c2)c2c(N)ncnc21 [II-7, 1-(5-(4-amino-1-isopropyl-1H-pyrazolo[3,4-d]pyrimidin-3-yl)-4-fluoroindolin-1-yl)-2-(3-(trifluoromethoxy)phenyl)ethan-1-one]
IC50 [5]: 151 to 300 nM

Cc1cc(NC(=O)Nc2ccc(-c3nn(C(C)C)c4ncnc(N)c34)cc2)ccc1N1CCOCC1 [Id-1, 1-(4-(4-amino-1-isopropyl-1H-pyrazolo[3,4-J]pyrimidin-3-yl)phenyl)-3-(3-methyl-4-morpholinophenyl)urea]
IC50 [1]: > 1500 nM

O=C(Nc1ccc(CN2CCN(C3CC3)CC2)c(C(F)(F)F)c1)Nc1ccc(Oc2ccnc3[nH]cc(Cl)c23)cc1F [Ie-11, 1-(4-((3-chloro-1H-pyrrolo[2,3-b]pyridin-4-yl)oxy)-2-fluorophenyl)-3-(4-((4-cyclopropylpiperazin-1-yl)methyl)-3-(trifluoromethyl)phenyl)urea]
IC50 [4]: > 1500 nM

CN1CCN(c2cc(NC(=O)Nc3ccc(Oc4ccnc5[nH]cc(Cl)c45)cc3F)cc(C(F)(F)F)c2)CC1 [Ie-6, 1-(4-((3-chloro-1H-pyrrolo[2,3-b]pyridin-4-yl)oxy)-2-fluorophenyl)-3-(3-(4-methylpiperazin-1-yl)-5-(trifluoromethyl)phenyl)urea]
IC50 [4]: > 1500 nM

Nc1ncnc2c1c(-c1ccc3c(c1F)CCN3C(=O)Cc1ccc(F)c(C(F)(F)F)c1)nn2C1COC1 [II-9, 1-(5-(4-amino-1-(oxetan-3-yl)-1H-pyrazolo[3,4-d]pyrimidin-3-yl)-4-fluoroindolin-1-yl)-2-(4-fluoro-3-(trifluoromethyl)phenyl)ethan-1-one]
IC50 [5]: 501 to 1500 nM

CN1CC2CCC1CN2Cc1ccc(NC(=O)Nc2ccc(Oc3ccnc4[nH]cc(Cl)c34)cc2F)cc1C(F)(F)F (stereo not shown) [Ie-35, 1-(4-((3-chloro-1H-pyrrolo[2,3-b]pyridin-4-yl)oxy)-2-fluorophenyl)-3-(4-((5-methyl-2,5-diazabicyclo[2.2.2]octan-2-yl)methyl)-3-(trifluoromethyl)phenyl)urea]
IC50 [4]: > 1500 nM

CN1CCC(n2nc(C(C)(C)C)cc2NC(=O)Nc2ccc(Oc3ccnc4[nH]cc(Cl)c34)cc2F)CC1 [Ib-21, 1-(3-(tert-butyl)-1-(1-methylpiperidin-4-yl)-1H-pyrazol-5-yl)-3-(4-((3-chloro-1H-pyrrolo[2,3-?]pyridin-4-yl)oxy)-2-fluorophenyl)urea]
IC50 [3]: > 1500 nM
